From patent US4617149A, “Growth hormone release factor analogs” (Eli Lilly and Company, priority 1983, dated 1986)
No end group written: not given here.

What was measured:
[1] = stability of hpGRF control solution by HPLC; format: physicochemical; conditions: 0.5 mg hpGRF/ml in 0.01M HCl, stored at 22° C., over six hours
Description: One mg of hpGRF, obtained from Peninsula Laboratories, was solubilized in one ml of 0.01M hydrochloric acid ([…]). The solution was divided into four equal aliquots, and each was diluted to a concentration of 0.5 mg hpGRF/ml by the addition of 250 μl of 0.01M HCl. The first aliquot was removed and stored at 22° C. for the duration of the experimentation, to serve as a control. Analysis of the control and the extent of each respective chemical modification with hydrogen peroxide, cyanogen bromide, and methyl iodide, described hereinbelow, was performed by high performance liquid chromatography (HPLC). Quantitation was achieved by peak height measurement at 214 nm, of a symmetrical peak eluting at 10 minutes from a (0.46×25 cm) Zorbax C8, 150 Angstrom reverse phase column, at 45° C. in 0.1M ammonium phosphate buffer, pH 7.2/27.5% 1-propanol, v/v. […] Each modification reaction was quenched by a 5:1 dilution (hpGRF final concentration of 0.1 mg/ml) with addition of two ml of 0.1M methionine/0.01M HCl, pH 3.5. Samples were divided and stored at -20° C. and 4° C. prior to analysis of biological activity.

[2] = peptide obtained by selective S-methylation of glucagon; cited from earlier work
[3] = tested on: pituitary release of growth hormone; conditions: in vitro, cited from earlier work

In the case of `CC[C@H](C)[C@H](NC(=O)[C@H](C)NC(=O)[C@H](CC(=O)O)NC(=O)[C@H](C)NC(=O)[C@@H](N)Cc1ccc(O)cc1)C(=O)N[C@@H](Cc1ccccc1)C(=O)N[C@H](C(=O)N[C@@H](CC(N)=O)C(=O)N[C@@H](CO)C(=O)N[C@@H](Cc1ccc(O)cc1)C(=O)N[C@@H](CCCNC(=N)N)C(=O)N[C@@H](CCCCN)C(=O)N[C@H](C(=O)N[C@@H](CC(C)C)C(=O)NCC(=O)N[C@@H](CCC(N)=O)C(=O)N[C@@H](CC(C)C)C(=O)N[C@@H](CO)C(=O)N[C@@H](C)C(=O)N[C@@H](CCCNC(=N)N)C(=O)N[C@@H](CCCCN)C(=O)N[C@@H](CC(C)C)C(=O)N[C@@H](CC(C)C)C(=O)N[C@@H](CCC(N)=O)C(=O)N[C@@H](CC(=O)O)C(=O)N[C@H](C(=O)N[C@@H](CCSC)C(=O)N[C@@H](CO)C(=O)N[C@@H](CCCNC(=N)N)C(=O)N[C@@H](CCC(N)=O)C(=O)N[C@@H](CCC(N)=O)C(=O)NCC(=O)N[C@@H](CCC(=O)O)C(=O)N[C@@H](CO)C(=O)N[C@@H](CC(N)=O)C(=O)N[C@@H](CCC(N)=O)C(=O)N[C@@H](CCC(=O)O)C(=O)N[C@@H](CCCNC(=N)N)C(=O)NCC(=O)N[C@@H](C)C(=O)N[C@@H](CCCNC(=N)N)C(=O)N[C@@H](C)C(=O)N[C@@H](CCCNC(=N)N)C(=O)N[C@@H](CC(C)C)C(N)=O)[C@@H](C)CC)C(C)C)[C@@H](C)O` [hpGRF], the “change in HPLC peak elution time or height” value [1] is reported as “no change in peak elution time or height”.
In the case of glucagon, the “activity as % of the inherent activity of the native hormone” value [2] is listed as “less than 1%”.
In the case of “hpGRF(1-27)-NH2: shortened GRF analog prepared and tested by Rivier et al. (YADAIFTNSYRKVLGQLSARKLLQDIM-NH2; UniProt P01286 32-58, looked up, fragment)”, the intrinsic activity [3] is listed as “full intrinsic activity” and the “potency as % of the potency of hpGRF(1-40)-OH” value ([3]; relative to hpGRF(1-40)-OH) is listed as 10-20%.
